Laboratory results as given in patent US8192962B2, “Processes for detecting toxic substances” (Daikin Industries, Ltd., priority 2001, dated 2012).

Test system: Genes belonging to other category
Experiment: DNA chip mRNA expression in yeast, genes belonging to other category (Table 9)
Format: cell-based, Saccharomyces cerevisiae S288C
Method in brief: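 S. cerevisiae S288C grown at 25° C in YPD were exposed in log phase for two hours to one toxic chemical at a growth-inhibiting, non-lethal concentration; untreated cells served as control. Poly(A) mRNA was reverse-transcribed with Cy3/Cy5-dUTP and hybridized to a whole-genome yeast DNA chip at 65° C for over 12 hours; values are fluorescence ratios versus untreated.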

CN(C)C(=S)SSC(=S)N(C)C [(10), Tetramethylthiuram disulfide]
The level of expressed mRNA in the presence of chemical substance/The level of expressed mRNA in the absence of chemical substance (yeast gene YJR058C): 2.6
The level of expressed mRNA in the presence of chemical substance/The level of expressed mRNA in the absence of chemical substance (yeast gene YJR086W): 1.1
The level of expressed mRNA in the presence of chemical substance/The level of expressed mRNA in the absence of chemical substance (yeast gene YJR110W): 2.3
The level of expressed mRNA in the presence of chemical substance/The level of expressed mRNA in the absence of chemical substance (yeast gene YJR123W): 0.5
The level of expressed mRNA in the presence of chemical substance/The level of expressed mRNA in the absence of chemical substance (yeast gene YKL007W): 2.4
The level of expressed mRNA in the presence of chemical substance/The level of expressed mRNA in the absence of chemical substance (yeast gene YKL008C): 0.4
The level of expressed mRNA in the presence of chemical substance/The level of expressed mRNA in the absence of chemical substance (yeast gene YKL013C): 1.4
The level of expressed mRNA in the presence of chemical substance/The level of expressed mRNA in the absence of chemical substance (yeast gene YKL039W): 3.3
The level of expressed mRNA in the presence of chemical substance/The level of expressed mRNA in the absence of chemical substance (yeast gene YKL041W): 1.5
The level of expressed mRNA in the presence of chemical substance/The level of expressed mRNA in the absence of chemical substance (yeast gene YKL079W): 2.0
The level of expressed mRNA in the presence of chemical substance/The level of expressed mRNA in the absence of chemical substance (yeast gene YKL096W): 0.5
The level of expressed mRNA in the presence of chemical substance/The level of expressed mRNA in the absence of chemical substance (yeast gene YKL117W): 2.1
The level of expressed mRNA in the presence of chemical substance/The level of expressed mRNA in the absence of chemical substance (yeast gene YKL139W): 1.5
The level of expressed mRNA in the presence of chemical substance/The level of expressed mRNA in the absence of chemical substance (yeast gene YKL165C): 0.4
The level of expressed mRNA in the presence of chemical substance/The level of expressed mRNA in the absence of chemical substance (yeast gene YKL171W): 1.8
The level of expressed mRNA in the presence of chemical substance/The level of expressed mRNA in the absence of chemical substance (yeast gene YKL193C): 1.6
The level of expressed mRNA in the presence of chemical substance/The level of expressed mRNA in the absence of chemical substance (yeast gene YKR014C): 2.0
The level of expressed mRNA in the presence of chemical substance/The level of expressed mRNA in the absence of chemical substance (yeast gene YKR098C): 2.7
The level of expressed mRNA in the presence of chemical substance/The level of expressed mRNA in the absence of chemical substance (yeast gene YLL050C): 1.0
The level of expressed mRNA in the presence of chemical substance/The level of expressed mRNA in the absence of chemical substance (yeast gene YLL051C): 1.8
The level of expressed mRNA in the presence of chemical substance/The level of expressed mRNA in the absence of chemical substance (yeast gene YLR120C): 1.6
The level of expressed mRNA in the presence of chemical substance/The level of expressed mRNA in the absence of chemical substance (yeast gene YLR121C): 2.0
The level of expressed mRNA in the presence of chemical substance/The level of expressed mRNA in the absence of chemical substance (yeast gene YLR136C): 6.0
The level of expressed mRNA in the presence of chemical substance/The level of expressed mRNA in the absence of chemical substance (yeast gene YLR178C): 4.1
The level of expressed mRNA in the presence of chemical substance/The level of expressed mRNA in the absence of chemical substance (yeast gene YLR200W): 2.6
The level of expressed mRNA in the presence of chemical substance/The level of expressed mRNA in the absence of chemical substance (yeast gene YLR250W): 2.4
The level of expressed mRNA in the presence of chemical substance/The level of expressed mRNA in the absence of chemical substance (yeast gene YLR266C): 2.6
The level of expressed mRNA in the presence of chemical substance/The level of expressed mRNA in the absence of chemical substance (yeast gene YLR327C): 8.3
The level of expressed mRNA in the presence of chemical substance/The level of expressed mRNA in the absence of chemical substance (yeast gene YLR340W): 0.5
The level of expressed mRNA in the presence of chemical substance/The level of expressed mRNA in the absence of chemical substance (yeast gene YLR356W): 1.6
The level of expressed mRNA in the presence of chemical substance/The level of expressed mRNA in the absence of chemical substance (yeast gene YLR362W): 3.3
The level of expressed mRNA in the presence of chemical substance/The level of expressed mRNA in the absence of chemical substance (yeast gene YLR391W): 0.7
The level of expressed mRNA in the presence of chemical substance/The level of expressed mRNA in the absence of chemical substance (yeast gene YLR423C): 1.0
The level of expressed mRNA in the presence of chemical substance/The level of expressed mRNA in the absence of chemical substance (yeast gene YLR429W): 1.3
The level of expressed mRNA in the presence of chemical substance/The level of expressed mRNA in the absence of chemical substance (yeast gene YML130C): 4.2
The level of expressed mRNA in the presence of chemical substance/The level of expressed mRNA in the absence of chemical substance (yeast gene YMR004W): 3.4
The level of expressed mRNA in the presence of chemical substance/The level of expressed mRNA in the absence of chemical substance (yeast gene YMR094W): 0.9
The level of expressed mRNA in the presence of chemical substance/The level of expressed mRNA in the absence of chemical substance (yeast gene YMR104C): 3.2
The level of expressed mRNA in the presence of chemical substance/The level of expressed mRNA in the absence of chemical substance (yeast gene YMR110C): 1.6
The level of expressed mRNA in the presence of chemical substance/The level of expressed mRNA in the absence of chemical substance (yeast gene YMR214W): 1.0
The level of expressed mRNA in the presence of chemical substance/The level of expressed mRNA in the absence of chemical substance (yeast gene YMR219W): 0.9
The level of expressed mRNA in the presence of chemical substance/The level of expressed mRNA in the absence of chemical substance (yeast gene YMR226C): 2.2
The level of expressed mRNA in the presence of chemical substance/The level of expressed mRNA in the absence of chemical substance (yeast gene YMR255W): 2.4
The level of expressed mRNA in the presence of chemical substance/The level of expressed mRNA in the absence of chemical substance (yeast gene YMR275C): 2.1
The level of expressed mRNA in the presence of chemical substance/The level of expressed mRNA in the absence of chemical substance (yeast gene YMR276W): 1.7
The level of expressed mRNA in the presence of chemical substance/The level of expressed mRNA in the absence of chemical substance (yeast gene YMR297W): 1.0
The level of expressed mRNA in the presence of chemical substance/The level of expressed mRNA in the absence of chemical substance (yeast gene YMR314W): 2.7
The level of expressed mRNA in the presence of chemical substance/The level of expressed mRNA in the absence of chemical substance (yeast gene YNL006W): 4.0
The level of expressed mRNA in the presence of chemical substance/The level of expressed mRNA in the absence of chemical substance (yeast gene YNL007C): 1.7
The level of expressed mRNA in the presence of chemical substance/The level of expressed mRNA in the absence of chemical substance (yeast gene YNL083W): 1.6
The level of expressed mRNA in the presence of chemical substance/The level of expressed mRNA in the absence of chemical substance (yeast gene YNL093W): 2.0
The level of expressed mRNA in the presence of chemical substance/The level of expressed mRNA in the absence of chemical substance (yeast gene YNL135C): 0.5
The level of expressed mRNA in the presence of chemical substance/The level of expressed mRNA in the absence of chemical substance (yeast gene YNL139C): 0.7
The level of expressed mRNA in the presence of chemical substance/The level of expressed mRNA in the absence of chemical substance (yeast gene YNL333W): 2.1
The level of expressed mRNA in the presence of chemical substance/The level of expressed mRNA in the absence of chemical substance (yeast gene YNR010W): 0.9
The level of expressed mRNA in the presence of chemical substance/The level of expressed mRNA in the absence of chemical substance (yeast gene YNR069C): 5.8
The level of expressed mRNA in the presence of chemical substance/The level of expressed mRNA in the absence of chemical substance (yeast gene YOL013C): 1.0
The level of expressed mRNA in the presence of chemical substance/The level of expressed mRNA in the absence of chemical substance (yeast gene YOL038W): 2.7
The level of expressed mRNA in the presence of chemical substance/The level of expressed mRNA in the absence of chemical substance (yeast gene YOL164W): 3.6
The level of expressed mRNA in the presence of chemical substance/The level of expressed mRNA in the absence of chemical substance (yeast gene YOR028C): 2.0
The level of expressed mRNA in the presence of chemical substance/The level of expressed mRNA in the absence of chemical substance (yeast gene YOR036W): 1.9
The level of expressed mRNA in the presence of chemical substance/The level of expressed mRNA in the absence of chemical substance (yeast gene YOR058C): 4.5
The level of expressed mRNA in the presence of chemical substance/The level of expressed mRNA in the absence of chemical substance (yeast gene YOR117W): 1.8
The level of expressed mRNA in the presence of chemical substance/The level of expressed mRNA in the absence of chemical substance (yeast gene YOR124C): 1.9
The level of expressed mRNA in the presence of chemical substance/The level of expressed mRNA in the absence of chemical substance (yeast gene YOR132W): 1.6
The level of expressed mRNA in the presence of chemical substance/The level of expressed mRNA in the absence of chemical substance (yeast gene YOR149C): 1.0
The level of expressed mRNA in the presence of chemical substance/The level of expressed mRNA in the absence of chemical substance (yeast gene YOR157C): 2.6
The level of expressed mRNA in the presence of chemical substance/The level of expressed mRNA in the absence of chemical substance (yeast gene YOR181W): 0.5
The level of expressed mRNA in the presence of chemical substance/The level of expressed mRNA in the absence of chemical substance (yeast gene YOR185C): 2.9
The level of expressed mRNA in the presence of chemical substance/The level of expressed mRNA in the absence of chemical substance (yeast gene YOR198C): 1.4
The level of expressed mRNA in the presence of chemical substance/The level of expressed mRNA in the absence of chemical substance (yeast gene YOR259C): 1.5
The level of expressed mRNA in the presence of chemical substance/The level of expressed mRNA in the absence of chemical substance (yeast gene YOR261C): 2.5
The level of expressed mRNA in the presence of chemical substance/The level of expressed mRNA in the absence of chemical substance (yeast gene YOR285W): 2.9
The level of expressed mRNA in the presence of chemical substance/The level of expressed mRNA in the absence of chemical substance (yeast gene YOR288C): 1.0
The level of expressed mRNA in the presence of chemical substance/The level of expressed mRNA in the absence of chemical substance (yeast gene YOR298W): 1.0
The level of expressed mRNA in the presence of chemical substance/The level of expressed mRNA in the absence of chemical substance (yeast gene YOR355W): 0.8
The level of expressed mRNA in the presence of chemical substance/The level of expressed mRNA in the absence of chemical substance (yeast gene YOR383C): 4.5
The level of expressed mRNA in the presence of chemical substance/The level of expressed mRNA in the absence of chemical substance (yeast gene YPL001W): 1.0
The level of expressed mRNA in the presence of chemical substance/The level of expressed mRNA in the absence of chemical substance (yeast gene YPL020C): 1.6
The level of expressed mRNA in the presence of chemical substance/The level of expressed mRNA in the absence of chemical substance (yeast gene YPL089C): 2.5
The level of expressed mRNA in the presence of chemical substance/The level of expressed mRNA in the absence of chemical substance (yeast gene YPL109C): 1.5
The level of expressed mRNA in the presence of chemical substance/The level of expressed mRNA in the absence of chemical substance (yeast gene YPL124W): 1.0
The level of expressed mRNA in the presence of chemical substance/The level of expressed mRNA in the absence of chemical substance (yeast gene YPL149W): 3.7
The level of expressed mRNA in the presence of chemical substance/The level of expressed mRNA in the absence of chemical substance (yeast gene YPL154C): 1.7
The level of expressed mRNA in the presence of chemical substance/The level of expressed mRNA in the absence of chemical substance (yeast gene YPL177C): 1.0
The level of expressed mRNA in the presence of chemical substance/The level of expressed mRNA in the absence of chemical substance (yeast gene YPL220W): 0.5
The level of expressed mRNA in the presence of chemical substance/The level of expressed mRNA in the absence of chemical substance (yeast gene YPL230W): 2.7
The level of expressed mRNA in the presence of chemical substance/The level of expressed mRNA in the absence of chemical substance (yeast gene YPR081C): 2.6
The level of expressed mRNA in the presence of chemical substance/The level of expressed mRNA in the absence of chemical substance (yeast gene YPR103W): 2.0
The level of expressed mRNA in the presence of chemical substance/The level of expressed mRNA in the absence of chemical substance (yeast gene YPR108W): 2.8
The level of expressed mRNA in the presence of chemical substance/The level of expressed mRNA in the absence of chemical substance (yeast gene YPR149W): 1.8
The level of expressed mRNA in the presence of chemical substance/The level of expressed mRNA in the absence of chemical substance (yeast gene YPR168W): 2.7
